Consider 31 compounds from PubChem BioAssay (NCI).

What all share (assay): NCI anticancer screen, dose series, 48 h
The test system of experiment [1] is SW-620 colon.
Experiment [2] relates to IGROV1 ovarian.
In experiment [3] the test system is HL-60(TB) leukemia.
In experiment [4] the test system is RXF 393 renal.
For experiment [5], the system named is LOX IMVI melanoma.
The test system of experiment [6] is MALME-3M melanoma.
The test system of experiment [7] is SK-MEL-2 melanoma.
Experiment [8] has as its system SK-OV-3 ovarian.
Experiment [9] deals with K-562 leukemia.

Structures are written as SMILES.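 Grown in 96-well plates, cells were treated for 48 hours with each compound at five concentrations. Insufficient inhibition: endpoint recorded as highest concentration tested. GI50 is the concentration that inhibits growth by half. TGI is the concentration that stops growth completely.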

Turning to `N#CC1CCCCCCCCCCC(=O)N(CCCl)C1=O` (centres undefined), the TGI in [1], in experiment [2], in experiment [3], in experiment [4], in experiment [5] and in [6] was above 100 µM each time. The TGI in [7], in experiment [8] and in experiment [9] was above 100 µM each time.

Turning to `Cn1cc(C(=O)C[n+]2ccccc2)c2ccccc21`, the TGI in experiment [1], in experiment [2], in experiment [3], in experiment [5], in experiment [6] and in [7] was above 100 µM throughout. This compound also yielded a TGI in experiment [9] above 100 µM.

As to `O=c1c2cc(Cl)ccc2sc2cccc(Cl)c12`, the TGI in experiment [1], in experiment [2], in [3], in experiment [4], in [5] and in experiment [7] was above 100 µM in each case. This compound gave a TGI in experiment [9] above 100 µM.

Turning to `Cc1cccc(C)c1NC(=O)C(=O)Nn1c(NN)nc2ccccc2c1=O`, the TGI in [1], in [2], in [3], in [4], in experiment [5] and in experiment [6] was above 100 µM throughout. In addition, the TGI in [7], in [8] and in experiment [9] was above 100 µM in each case.

Turning to `N#CC1(C#N)C(C#N)(C#N)C12CCCCCC2`, the TGI in [1] was 5.29 µM; in experiment [2], above 68.8 µM; in experiment [3], 20.6 µM; in experiment [4], 22.9 µM; in [5], 32.3 µM; in experiment [6], 31 µM. Besides, the TGI in experiment [7] was 18.4 µM; in [8], above 100 µM; in experiment [9], above 30.3 µM.

On to `NC(N)=NS(=O)(=O)c1ccc(NCCc2c3ccccc3nc3ccccc23)cc1`, for which the TGI in [1] is above 100 µM; in [2] it was above 100 µM; in [3] it was 82.5 µM; in experiment [4], above 100 µM; in experiment [5], above 100 µM; in [6], above 100 µM. For the same compound, the TGI in experiment [7], in experiment [8] and in experiment [9] was above 100 µM in each case.

Regarding `CC(=O)OCC1OC(n2c(-c3ccc(C)cc3)cc(-c3ccccc3)c(C#N)c2=O)C(OC(C)=O)C(OC(C)=O)C1OC(C)=O` (centres undefined), the TGI in experiment [1], in experiment [2], in experiment [3], in experiment [5], in experiment [6] and in [7] was above 100 µM in each case. Further, the TGI in experiment [8] and in [9] was above 100 µM throughout.

As for `CC(C)(c1ccccc1)c1ccc(OC#N)cc1`, the TGI is above 100 µM in experiment [1]; above 100 µM in experiment [2]; above 77.9 µM in [3]; above 100 µM in experiment [4]; above 58.9 µM in [5]; above 100 µM in [6]. Moreover, the TGI in experiment [7], in experiment [8] and in [9] was above 100 µM throughout.

For `N#Cc1cccc(/C=N/N=C(\N)NO)c1`, the TGI in experiment [1], in [2], in [3], in [4], in experiment [5] and in [6] was above 100 µM throughout. Further, the TGI in experiment [7], in experiment [8] and in experiment [9] was above 100 µM throughout.

For `Cn1cc2ccccc2c1-c1nc(F)nc(OCC(=O)[C@H]2CCC3[C@@H]4CCC5=CC(=O)CC[C@]5(C)C4[C@@H](O)C[C@@]32C)n1` (some centres undefined), the TGI was determined as 33.4 µM in experiment [1]; 22.9 µM in experiment [2]; 25.3 µM in experiment [3]; 14.5 µM in [4]; 23.3 µM in experiment [5]; 33.8 µM in experiment [6]. The TGI in [7] was 31.3 µM; in [8], 37.3 µM; in [9], 8.94 µM.

For the compound `CC1OC(n2cc(F)c(=O)[nH]c2=O)C=CC1=O` (centres undefined), the TGI in experiment [1] is 38.6 µM; in experiment [2], above 100 µM; in experiment [3] it was 70.3 µM; in experiment [4], 30.4 µM; in experiment [5], 28.7 µM; in [6], 35.3 µM. Moreover, the TGI in [7] was 28.9 µM; in [8], 95.9 µM; in experiment [9], above 100 µM.

For `CCN1CCC(O)(c2ccc(Cl)cc2)C(C(=O)c2ccc(Cl)cc2)C1` (centres undefined), the TGI in experiment [1], in [2], in [3], in experiment [4], in experiment [5] and in [7] was above 100 µM throughout. In addition, the TGI in [8] and in experiment [9] was above 100 µM in each case.

As for `O=C(c1ccccc1)c1cn(/N=C\c2ccccc2)c(=O)nc1-c1ccccc1`, the TGI in experiment [1], in experiment [4], in experiment [5], in [6], in experiment [7] and in [8] was above 100 µM in each case. The compound also gave a TGI in experiment [9] above 100 µM.

For the compound `CCOc1ccc2nc(NC(=O)C(=O)C(c3cnc4ccccc4n3)[N+](=O)[O-])sc2c1` (centres undefined), the TGI in experiment [2], in experiment [3], in experiment [4], in [5], in [6] and in [7] was above 100 µM each time. In addition, the TGI in [8] and in experiment [9] was above 100 µM in each case.

With `NC(N)=NS(=O)(=O)c1ccc(Nc2c3ccccc3nc3c(C(=O)Nc4ccc(S(N)(=O)=O)cc4)cccc23)cc1`, the TGI in [1], in experiment [2], in experiment [3], in experiment [4], in [5] and in experiment [6] was above 100 µM in each case. Further, the TGI in [7], in experiment [8] and in [9] was above 100 µM throughout.

Regarding `CCCSS[C@H]1NC(=O)[C@H]1NC(=O)COc1ccccc1`, the TGI in experiment [1] stood at 18.2 µM; in [2], 43.2 µM; in [3], 5.72 µM; in experiment [4], 29.7 µM; in [5] it was 30.2 µM; in [6], 26.9 µM. For the same compound, the TGI in [7] is 33.5 µM; in experiment [8], above 100 µM; in experiment [9], 28.6 µM.

Take `COc1cc2c(cc1OC)/C(=C\c1ccccc1N)C(=O)OC2`: the TGI is 13.9 µM in [1]; 36.7 µM in experiment [2]; 17.6 µM in [3]; 12.9 µM in experiment [4]; 4.18 µM in experiment [5]; 29.1 µM in experiment [6]. Also, the TGI in experiment [7] stood at 26.4 µM; in experiment [8] it was 55.7 µM; in experiment [9], 16.1 µM.

For the compound `Clc1ccc(C(n2cc(Br)cn2)n2cc(Br)cn2)cc1`, the TGI in experiment [1] amounted to 34.6 µM; in [2], 41.3 µM; in [3], 56.6 µM; in [4] it was 32.5 µM; in experiment [6], 31.7 µM; in [7], 33.2 µM. The values for the TGI in experiment [8] and in experiment [9] were 60.9 µM and 53.6 µM, respectively.

Consider `COC(C)(C)C/C=C/C(C)=C/C=C/C(C)=C\C=C\C(C)=C\C=C\C=C(C)\C=C\C=C(C)\C=C\C=C(C)\C=C\CC(C)(C)OC`, for which the GI50 in experiment [1], in [2], in [3], in experiment [4], in experiment [5] and in [6] was above 150 µg/mL each time. For the same compound, the GI50 in experiment [7] and in [9] was above 150 µg/mL throughout. For the same compound, the TGI in experiment [1], in [2], in experiment [3], in [4], in experiment [5] and in [6] was above 150 µg/mL in each case. Besides, the TGI in experiment [7] and in experiment [9] was above 150 µg/mL throughout.

For `O=C(NC12CC3CC(CC(C3)C1)C2)C(=O)c1c[nH]c2ccccc12`, the TGI in experiment [2] was found to be 29.3 µM; in [3], 52.8 µM; in [5] it was 25.8 µM; in experiment [6], 28.3 µM; in experiment [7], 32.3 µM; in experiment [8], 29.5 µM.

As for `CN(C)CC/[N+]([O-])=C(/c1ccccc1)C12CC3CC(CC(C3)C1)C2`, the TGI stood at 33.9 µM in experiment [2]; 26.1 µM in [3]; 32.9 µM in [4]; 31.2 µM in [5]; 55.2 µM in experiment [6]; 34.9 µM in [7]. For the same compound, the TGI turned out to be 31.4 µM in [8] and 30.8 µM in experiment [9].

As to `Cc1cc2c(C)nn(Cc3ccc(Cl)cc3)c2c(C#N)c1C`, the TGI in experiment [1], in [2], in experiment [3], in [4], in experiment [6] and in experiment [7] was above 100 µM in each case. The same compound registered a TGI in [8] above 100 µM.

Take `CN(C)CCCNC(=O)c1cc(NC(=O)c2cc(NC(=O)CCNS(=O)(=O)c3ccc4c(c3)C(=O)c3ccccc3C4=O)cn2C)cn1C`: the GI50 in experiment [1], in experiment [2], in experiment [3], in experiment [4], in experiment [7] and in experiment [8] was above 100 µM in each case. Also, the GI50 in experiment [9] is above 100 µM. In addition, the TGI in experiment [1], in [2], in experiment [3], in [4], in experiment [7] and in [8] was above 100 µM each time. This compound also came in with a TGI in [9] above 100 µM.

With `COC(=O)c1c2cccccc-2c(Cc2c3cccccc-3c(C(=O)OC)c2O)c1O`, the TGI in experiment [1], in [2], in experiment [3], in experiment [5], in experiment [6] and in experiment [7] was above 100 µM each time. The TGI in [8] and in experiment [9] was above 100 µM each time.

Regarding `CC(C)OP(=O)(NC(=S)c1ccccc1)OC(C)C`, the TGI in [1], in [2], in experiment [5], in experiment [6], in [7] and in experiment [8] was above 100 µM throughout. This compound also gave a TGI in experiment [9] above 100 µM.

For `Cc1cc(C)cc(NC(N)=S)c1`, the TGI in [1] was 18 µM; in experiment [2], above 100 µM; in [3] it was above 100 µM; in experiment [4], 98.1 µM; in experiment [5], 89.5 µM; in experiment [6] it was above 100 µM. Further, the TGI in experiment [7] and in experiment [9] was above 100 µM each time.

With `O=C(O)CCc1nn2c(nc1=O)sc1ccc3ccccc3c12`, the TGI in experiment [1], in [2], in [3], in experiment [4], in experiment [5] and in [6] was above 100 µM each time. Besides, the TGI in experiment [8] and in [9] was above 100 µM in each case.

Take `N#CC1CC2(CCN1C(=O)c1ccccc1)OCCO2` (centres undefined): the TGI in experiment [1], in experiment [2], in [3], in experiment [4], in experiment [6] and in experiment [7] was above 100 µM in each case. Moreover, the TGI in experiment [8] and in [9] was above 100 µM throughout.

Regarding `COc1ccccc1NC(=O)CC(=O)N/N=C/c1ccc(N(CCC#N)S(=O)(=O)c2ccccc2)cc1`, the TGI in experiment [1], in experiment [2], in [3], in experiment [5], in experiment [6] and in experiment [7] was above 100 µM throughout. The TGI in experiment [9] was above 100 µM.

With `C=CCC1C(=O)CC2(C)CC(=O)C(CC=C)C12C` (centres undefined), the TGI in experiment [1], in experiment [2], in experiment [3], in experiment [4], in experiment [5] and in [6] was above 100 µM each time. Also, the TGI in experiment [8] and in experiment [9] was above 100 µM throughout.

As for `CC1(C)C2C=CC1C(=O)CC2` (centres undefined), the TGI in experiment [1], in experiment [3], in [4], in experiment [5], in experiment [6] and in experiment [7] was above 100 µM in each case. This compound yielded a TGI in experiment [9] above 100 µM.
